Like-named read-outs stand apart in the source and are kept apart here.
Target: T1, human GR (Homo sapiens, UniProt P04150)
T1 sequence (P04150 1-777): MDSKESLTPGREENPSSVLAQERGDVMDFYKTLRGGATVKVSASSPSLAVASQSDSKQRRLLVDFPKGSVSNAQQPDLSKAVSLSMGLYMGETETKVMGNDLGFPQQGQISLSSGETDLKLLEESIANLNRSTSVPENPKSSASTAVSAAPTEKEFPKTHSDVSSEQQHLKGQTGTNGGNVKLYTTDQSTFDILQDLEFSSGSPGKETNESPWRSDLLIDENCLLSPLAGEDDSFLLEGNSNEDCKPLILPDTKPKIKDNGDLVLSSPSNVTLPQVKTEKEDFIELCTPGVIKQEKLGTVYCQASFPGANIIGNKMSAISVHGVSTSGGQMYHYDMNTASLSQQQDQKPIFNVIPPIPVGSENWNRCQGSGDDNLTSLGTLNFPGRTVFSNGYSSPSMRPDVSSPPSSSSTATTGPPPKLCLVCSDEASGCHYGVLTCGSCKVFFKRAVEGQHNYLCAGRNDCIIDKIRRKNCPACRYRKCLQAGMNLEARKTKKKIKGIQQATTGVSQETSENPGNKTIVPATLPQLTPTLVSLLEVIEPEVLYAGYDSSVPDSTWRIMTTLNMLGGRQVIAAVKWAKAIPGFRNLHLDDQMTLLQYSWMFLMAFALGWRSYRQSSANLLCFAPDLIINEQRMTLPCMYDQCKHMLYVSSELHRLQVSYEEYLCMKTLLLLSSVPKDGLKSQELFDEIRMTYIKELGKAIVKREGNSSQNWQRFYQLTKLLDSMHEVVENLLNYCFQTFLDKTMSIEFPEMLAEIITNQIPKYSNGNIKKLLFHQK
Test: Transrepression Assay (GITAR), TNFα-β-lactamase reporter gene in U937 cells
Format: cell-based
Parameters: U937 cells contain an endogenous glucocorticoid receptor (GR); endogenous in cells; host or cells: U937 cells stably transfected with the TNF-α promoter/β-lactamase reporter only
Method in brief: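 Reporter readout used CCF2-AM loading for 70–90 min at room temperature after overnight (~18 h, 37 °C) PMA (5 ng/ml final) and LPS (100 ng/ml final) stimulation of compound-treated (30–45 min) TNFα-β-lactamase U937 cells expressing native GR. Activity was normalised to 100 nM dexamethasone repression.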

[1] = U-937, 100 nM dexamethasone = 100% activity, read-out: maximal activity in the transrepression assay
[2] = U-937, read-out: maximal activity in the transrepression assay

SMILES	Emax [1]	Emax [2]
COC(=O)Oc1ccccc1CC[C@]1(O)CCC2=Cc3c(cnn3-c3ccc(F)cc3)C[C@@]21C [Example 135, 2-{2-[(4αS,5R)-1-(4-fluorophenyl)-5-hydroxy-4α-methyl-1,4,4α,5,6,7-hexahydrocyclopenta[f]indazol-5-yl]ethyl}phenyl methyl carbonate]	5 to 100%	–
CC(C)NC(=O)Oc1ccccc1CC[C@]1(O)CCC2=Cc3c(cnn3-c3ccc(F)cc3)C[C@@]21C [Example 136, 2-{2-[(4αS,5R)-1-(4-fluorophenyl)-5-hydroxy-4α-methyl-1,4,4α,5,6,7-hexahydrocyclopenta[f]indazol-5-yl]ethyl}phenyl isopropylcarbamate]	–	5 to 100%
CCNS(=O)(=O)c1ccccc1CC[C@]1(O)CCC2=Cc3c(cnn3-c3ccc(F)cc3)C[C@@]21C [Example 137, N-ethyl-2-{2-[(4αS,5R)-1-(4-fluorophenyl)-5-hydroxy-4α-methyl-1,4,4α,5,6,7-hexahydrocyclopenta[f]indazol-5-yl]ethyl}benzenesulfonamide]	5 to 100%	–
CNS(=O)(=O)c1ccccc1CC[C@]1(O)CCC2=Cc3c(cnn3-c3ccc(F)cc3)C[C@@]21C [Example 139, 2-{2-[(4αS,5R)-1-(4-fluorophenyl)-5-hydroxy-4α-methyl-1,4,4α,5,6,7-hexahydrocyclopenta[f]indazol-5-yl]ethyl}-N-methylbenzenesulfonamide]	5 to 100%	–
C[C@]12Cc3cnn(-c4cccc(F)c4)c3C=C1CC[C@@]2(O)CCc1ccccc1S(N)(=O)=O [Example 140, 2-{2-[(4αS,5R)-1-(3-fluorophenyl)-5-hydroxy-4α-methyl-1,4,4α,5,6,7-hexahydrocyclopenta[f]indazol-5-yl]ethyl}benzenesulfonamide]	5 to 100%	–
C[C@]12Cc3cnn(-c4ccccc4)c3C=C1CC[C@@]2(O)CCc1ccccc1S(N)(=O)=O [Example 141, 2-{2-[(4αS,5R)-5-hydroxy-4α-methyl-1-phenyl-1,4,4α,5,6,7-hexahydrocyclopenta[f]indazol-5-yl]ethyl}benzenesulfonamide]	5 to 100%	–
C[C@]12Cc3cnn(-c4ccc(F)c(F)c4)c3C=C1CC[C@@]2(O)CCc1ccccc1S(N)(=O)=O [Example 142, 2-{2-[(4αS,5R)-1-(3,4-difluorophenyl)-5-hydroxy-4α-methyl-1,4,4α,5,6,7-hexahydrocyclopenta[f]indazol-5-yl]ethyl}benzenesulfonamide]	5 to 100%	–
C[C@]12Cc3cnn(-c4ccc(F)cc4)c3C=C1CC[C@@]2(O)CCc1ccccc1-c1ccc[nH]1 [Example 147, (4αS,5R)-1-(4-fluorophenyl)-4α-methyl-5-{2-[2-(1H-pyrrol-2-yl)phenyl]ethyl}-1,4,4α,5,6,7-hexahydrocyclopenta[f]indazol-5-ol]	5 to 100%	–
C[C@]12Cc3cnn(-c4ccc(F)cc4)c3C=C1CC[C@@]2(O)CCc1ccccc1CO [Example 149, (4αS,5R)-1-(4-fluorophenyl)-5-{2-[2-(hydroxymethyl)phenyl]ethyl}-4α-methyl-1,4,4α,5,6,7-hexahydrocyclopenta[f]indazol-5-ol]	–	5 to 100%

Second part, led by results:

Emax [1]	SMILES	Emax [2]
5 to 100%	CC(C)NC(=O)Nc1ccc(F)cc1CC[C@]1(O)CCC2=Cc3c(cnn3-c3ccc(F)cc3)C[C@@]21C [Example 133, N-(4-fluoro-2-{2-[(4αS,5R)-1-(4-fluorophenyl)-5-hydroxy-4α-methyl-1,4,4α,5,6,7-hexahydrocyclopenta[f]indazol-5-yl]ethyl}phenyl)-N′-isopropylurea]	–
5 to 100%	C[C@]12Cc3cnn(-c4ccc(F)cc4)c3C=C1CC[C@@]2(O)CCc1cccc(F)c1C#N [Example 145, 2-fluoro-6-{2-[(4αS,5R)-1-(4-fluorophenyl)-5-hydroxy-4α-methyl-1,4,4α,5,6,7-hexahydrocyclopenta[f]indazol-5-yl]ethyl}benzonitrile]	–
5 to 100%	C[C@]12Cc3cnn(-c4ccc(F)cc4)c3C=C1CC[C@@]2(O)CCc1cc(F)ccc1C#N [Example 146, 4-fluoro-2-{2-[(4αS,5R)-1-(4-fluorophenyl)-5-hydroxy-4α-methyl-1,4,4α,5,6,7-hexahydrocyclopenta[f]indazol-5-yl]ethyl}benzonitrile]	–

— US8119681B2, “2-[1-phenyl-5-hydroxy or methoxy-4alpha-methyl-hexahydrocyclopenta [ƒ]indazole-5-YL]ethyl phenyl derivatives as glucocorticoid receptor ligands” (Merck Sharp & Dohme Corp., priority 2006, dated 2012)
